Test [1] concerns the target T1, Vasoactive intestinal polypeptide receptor 1 (Homo sapiens, UniProt P32241). Further: in other assays of this panel Not Active means under 50% inhibition at 10 µM.
T1 sequence (P32241 whole entry): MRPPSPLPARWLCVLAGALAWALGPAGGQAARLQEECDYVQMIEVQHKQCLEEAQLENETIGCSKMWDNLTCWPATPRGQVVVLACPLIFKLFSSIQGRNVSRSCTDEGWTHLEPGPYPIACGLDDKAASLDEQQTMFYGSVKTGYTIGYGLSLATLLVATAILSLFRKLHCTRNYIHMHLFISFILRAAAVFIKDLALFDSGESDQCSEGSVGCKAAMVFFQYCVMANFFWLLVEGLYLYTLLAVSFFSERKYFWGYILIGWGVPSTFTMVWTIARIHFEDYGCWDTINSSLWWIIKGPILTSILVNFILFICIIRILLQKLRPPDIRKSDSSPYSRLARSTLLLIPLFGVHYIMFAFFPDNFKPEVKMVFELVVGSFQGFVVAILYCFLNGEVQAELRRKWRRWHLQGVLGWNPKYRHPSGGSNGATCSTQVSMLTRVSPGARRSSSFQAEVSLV
It counts as cell membranes, Membrane. The following applies: ht-29.

Test [2] has as its target Aldo-keto reductase family 1 member B1 (Rattus norvegicus, UniProt P07943). The test is described as follows: biochemical. The class given is tissue-based, Lens of camera-type eye.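 Further: inhibition of aldose reductase enzyme activity, measured with DL-glyceraldehyde as the substrate; in other assays of this panel Not Active means under 50% inhibition at 10 µM.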
For test [3], the target named is Tyrosine-protein kinase Lck (Homo sapiens, UniProt P06239). As to the kind of experiment: DRUGMATRIX: Protein Tyrosine Kinase, LCK enzyme inhibition (substrate: Poly(Glu:Tyr)). It counts as cell-based, Insect cells. The following applies: insect cells, Not Active = under 50% inhibition at 10 µM.
Test [4] addresses T2, Alpha-1A adrenergic receptor (Rattus norvegicus, UniProt P43140).
T2 sequence (P43140 whole entry): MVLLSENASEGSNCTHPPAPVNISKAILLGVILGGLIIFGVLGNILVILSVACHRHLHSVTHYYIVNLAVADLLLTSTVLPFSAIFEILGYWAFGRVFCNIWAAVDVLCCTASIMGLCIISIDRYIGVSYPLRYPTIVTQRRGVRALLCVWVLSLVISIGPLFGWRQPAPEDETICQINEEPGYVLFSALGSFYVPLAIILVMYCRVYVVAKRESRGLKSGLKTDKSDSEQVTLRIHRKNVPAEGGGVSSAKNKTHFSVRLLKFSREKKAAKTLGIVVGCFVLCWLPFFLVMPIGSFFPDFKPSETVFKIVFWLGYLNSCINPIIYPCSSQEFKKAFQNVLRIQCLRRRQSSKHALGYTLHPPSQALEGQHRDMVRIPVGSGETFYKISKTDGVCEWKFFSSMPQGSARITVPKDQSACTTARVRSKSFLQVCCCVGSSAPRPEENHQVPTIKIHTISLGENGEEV
As to the kind of experiment: DRUGMATRIX: Alpha-1A adrenergic receptor radioligand binding (ligand: prazosin). The class given is cell membranes, Wistar, Submaxillary gland, Membrane. The following applies: Not Active = under 50% inhibition at 10 µM.

In another test the target is Melanocortin receptor 5 (Homo sapiens, UniProt P33032). The class given is cell membranes, HEK293, Membrane. The following applies: hek293. Further: in other assays of this panel Not Active means under 50% inhibition at 10 µM.
The target of the next test is T3, Endothelin-1 receptor (Homo sapiens, UniProt P25101). Further: in other assays of this panel Not Active means under 50% inhibition at 10 µM.
T3 sequence (P25101 whole entry): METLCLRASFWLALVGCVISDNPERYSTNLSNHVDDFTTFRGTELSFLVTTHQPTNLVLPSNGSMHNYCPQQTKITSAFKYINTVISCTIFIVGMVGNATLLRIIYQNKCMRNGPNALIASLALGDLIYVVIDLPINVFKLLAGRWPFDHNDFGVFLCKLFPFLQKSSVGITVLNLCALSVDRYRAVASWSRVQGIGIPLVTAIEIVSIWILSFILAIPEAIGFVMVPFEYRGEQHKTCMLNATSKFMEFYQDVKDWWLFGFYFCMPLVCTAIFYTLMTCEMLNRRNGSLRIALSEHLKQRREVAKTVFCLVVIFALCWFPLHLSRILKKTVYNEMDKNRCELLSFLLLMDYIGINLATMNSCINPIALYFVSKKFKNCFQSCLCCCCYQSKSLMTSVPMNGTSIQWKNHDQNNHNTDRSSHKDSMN
The class given is cell membranes, Membrane. The following applies: cho-k1.

Melanocortin receptor 5, sequence (P33032 whole entry): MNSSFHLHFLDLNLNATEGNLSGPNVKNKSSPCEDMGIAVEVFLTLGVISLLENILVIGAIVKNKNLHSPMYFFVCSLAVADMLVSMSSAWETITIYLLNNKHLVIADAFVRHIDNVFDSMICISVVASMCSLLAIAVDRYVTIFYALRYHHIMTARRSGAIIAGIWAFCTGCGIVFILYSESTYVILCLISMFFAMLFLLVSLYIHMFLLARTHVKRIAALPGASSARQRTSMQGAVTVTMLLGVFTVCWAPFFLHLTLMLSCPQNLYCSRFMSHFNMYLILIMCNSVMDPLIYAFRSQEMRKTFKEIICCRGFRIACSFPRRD
Tyrosine-protein kinase Lck, sequence (P06239 whole entry): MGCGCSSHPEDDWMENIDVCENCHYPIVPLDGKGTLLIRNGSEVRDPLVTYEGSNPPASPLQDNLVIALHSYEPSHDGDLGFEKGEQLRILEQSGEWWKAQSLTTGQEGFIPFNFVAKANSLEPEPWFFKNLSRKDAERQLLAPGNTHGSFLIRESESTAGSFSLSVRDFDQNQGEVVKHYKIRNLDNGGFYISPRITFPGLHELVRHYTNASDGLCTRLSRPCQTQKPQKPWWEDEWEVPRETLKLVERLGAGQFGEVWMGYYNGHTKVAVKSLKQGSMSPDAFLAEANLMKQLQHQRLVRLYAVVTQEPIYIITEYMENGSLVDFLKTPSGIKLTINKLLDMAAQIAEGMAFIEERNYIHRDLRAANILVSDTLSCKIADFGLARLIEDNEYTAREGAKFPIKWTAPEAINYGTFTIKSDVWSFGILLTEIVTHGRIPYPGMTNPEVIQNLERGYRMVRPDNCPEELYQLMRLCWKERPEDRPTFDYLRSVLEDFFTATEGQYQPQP

As a reminder, the IC50 is the concentration that gives 50% inhibition. Turning to `CC(=O)OCC(COC(C)=O)OC(C)=O` [TRIACETIN], the IC50 result (in test [1]; in test [2]; in test [3]; in test [4]; on Melanocortin receptor 5; against Endothelin-1 receptor) was “Not Active” in each case.

Take `CN1CCN(CCCN2c3ccccc3Sc3ccc(C(F)(F)F)cc32)CC1` [TRIFLUOPERAZINE]: the IC50 result (in test [1]; in test [2]; in test [3]; in test [4]; at Melanocortin receptor 5; at Endothelin-1 receptor) was “Not Active” in each case.

Consider TRANSPLATIN, for which the IC50 entry in test [1] is “Not Active”; in test [2], “Not Active”; in test [3] (read-out: IC50) it was 2.72 µM; in test [4], “Not Active”; at Melanocortin receptor 5, “Not Active”; on Endothelin-1 receptor it was “Not Active”. Besides, the Ki result (in test [1]; in test [2]; in test [4]; at Melanocortin receptor 5; at Endothelin-1 receptor) was “Not Active” in each case.

For the compound ZIRCONIUM(IV) CHLORIDE, the IC50 result (in test [1]; in test [2]; in test [3]; in test [4]; at Melanocortin receptor 5; against Endothelin-1 receptor) was “Not Active” in each case. Also, the Ki entry (in test [1]; in test [2]; in test [3]; in test [4]; at Melanocortin receptor 5; at Endothelin-1 receptor) was “Not Active” in each case.
